Where a name gives a salt, the structure may show the parent alone.
Key:
[1] = biological target: T1, HCV polymerase (NS5B) type 1b (Hepatitis C virus genotype 1b, UniProt P26663); experiment: Assay of enzyme (HCV polymerase) inhibitory activity, type 1b enzyme; type: biochemical, HCV BK strain (type 1b)
T1 construct: a region encoding NS5B (J Virol 1991 March, 65(3), 1105-13, 544 amino acids after deletion of 47 amino acids on the C-terminal); 6xHis (C); made in house; host or cells: Escherichia coli
Method in brief: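 Rxn: NS5B 1b (BK, ΔC47, His6) 0.5 μg/ml; substrate RNA 5 μg/ml; ATP/GTP/CTP 50 μM, UTP 2 μM + [5,6-3H]UTP; 20 mM Tris pH 7.5, 5 mM MgCl2, 50 mM NaCl, 1 mM EDTA/DTT. 25 °C, 60 min. Stop with TCA/pyrophosphate, filter, scintillation count; IC50 vs. untreated.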

[2] = biological target: T2, HCV polymerase (NS5B) type 1a (Hepatitis C virus genotype 1a, UniProt P26664); experiment: Assay of enzyme (HCV polymerase) inhibitory activity, type 1a enzyme; type: biochemical, HCV type 1a (cloned from the blood of patients)
T2 construct: made in house; host or cells: Escherichia coli (by the 'similar method' of the 1b enzyme)
Method in brief: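 NS5B Δ47 C-term His6 (type 1a, 1.5 μg/ml); substrate RNA 5 μg/ml; ATP/GTP/CTP 50 μM, UTP 2 μM + [5,6-3H]UTP; Tris pH 7.5, MgCl2 5 mM; 25° C, 60 min. TCA/pyrophosphate stop, GF/B filter, scintillation. IC50 vs no-compound control.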

[3] = HCV polymerase inhibitory activity (IC50), 1b, type 1b enzyme 0.5 μg/ml, 25° C., 60 min
[4] = HCV polymerase inhibitory activity (IC50), 1a, type 1a enzyme 1.5 μg/ml, 25° C., 60 min
[5] = HCV polymerase inhibitory activity IC50, 1b, type 1b enzyme
[6] = HCV polymerase inhibitory activity IC50, 1a, type 1a enzyme

CC(C)c1ccc(CNC(=O)[C@H]2CN(C(=O)CN3CCOCC3)CCN2S(=O)(=O)c2ccc(C(F)(F)F)cc2)cc1 [Example 180, (R)-4-(2-morpholin-4-yl-acetyl)-1-(4-trifluoromethyl-benzenesulfonyl)-piperazine-2-carboxylic acid 4-isopropyl-benzylamide]
IC50 [1, 3]: 100 to 1000 nM | IC50 [2, 4]: > 1000 nM

CC(=O)N1CCN(S(=O)(=O)c2ccc(OCC(=O)O)cc2)[C@@H](C(=O)NCc2ccc(C(C)C)cc2)C1 [Example 249, {4-[(R)-4-acetyl-2-(4-isopropyl-benzylcarbamoyl)-piperazine-1-sulfonyl]-phenoxy}-acetic acid]
IC50 [1, 3]: > 1000 nM | IC50 [2, 4]: > 1000 nM

COc1ccc(CCNC(=O)[C@H]2CN(C(C)=O)CCN2S(=O)(=O)c2ccc(OC(F)(F)F)cc2)cc1 [Example 673, (R)-4-acetyl-1-(4-trifluoromethoxy-benzenesulfonyl)-piperazine-2-carboxylic acid [2-(4-methoxy-phenyl)-ethyl]-amide]
IC50 [1, 5]: > 1000 nM | IC50 [2, 6]: > 1000 nM

CCCc1ccc(CNC(=O)[C@H]2CN(c3nc(C)c(C(=O)C(=O)OCC)s3)CCN2S(=O)(=O)c2ccc(OC(F)(F)F)cc2)cc1 [Example 846, {4-methyl-2-[(R)-3-(4-propyl-benzylcarbamoyl)-4-(4-trifluoromethoxy-benzenesulfonyl)-piperazin-1-yl]-thiazol-5-yl}-oxo-acetic acid ethyl ester]
IC50 [1, 5]: < 100 nM | IC50 [2, 6]: 100 to 1000 nM

CCCc1ccc(CNC(=O)[C@H]2CN(c3nc(CC)c(C(=O)O)s3)CCN2S(=O)(=O)c2ccc(OC(F)(F)F)cc2)c(C)c1 [Example 363, 4-ethyl-2-[(R)-3-(2-methyl-4-propyl-benzylcarbamoyl)-4-(4-trifluoromethoxy-benzenesulfonyl)-piperazin-1-yl]-thiazole-5-carboxylic acid]
IC50 [1, 3]: < 100 nM | IC50 [2, 4]: < 100 nM

COc1ccc(CNC(=O)C2CN(C(C)=O)CCN2S(=O)(=O)c2ccc(C(C)C)cc2)cc1 (stereo not shown) [Example 52, 4-acetyl-1-(4-isopropyl-benzenesulfonyl)-piperazine-2-carboxylic acid 4-methoxy-benzylamide]
IC50 [1, 3]: > 1000 nM | IC50 [2, 4]: > 1000 nM

CCCc1ccc(CNC(=O)[C@H]2CN(c3cnc4cncnc4n3)CCN2S(=O)(=O)c2ccc(OC(F)(F)F)c(CCCC(=O)O)c2)cc1 [Example 773, 4-{5-[(R)-2-(4-propyl-benzylcarbamoyl)-4-pteridin-7-yl-piperazine-1-sulfonyl]-2-trifluoromethoxy-phenyl}-butyric acid]
IC50 [1, 5]: < 100 nM | IC50 [2, 6]: < 100 nM

CN(C)c1ccc(CNC(=O)C2CN(C(=O)CCN)CCN2S(=O)(=O)c2ccc(I)cc2)cc1 (stereo not shown) [Example 89, 4-(3-amino-propionyl)-1-(4-iodo-benzenesulfonyl)-piperazine-2-carboxylic acid 4-dimethylamino-benzylamide hydrochloride]
IC50 [1, 3]: > 1000 nM | IC50 [2, 4]: > 1000 nM

CCCc1ccc(CNC(=O)[C@H]2CN(c3cc(Cl)ncn3)CCN2S(=O)(=O)c2ccc(OC(F)(F)F)cc2)cc1 [Example 571, (R)-4-(6-chloro-pyrimidin-4-yl)-1-(4-trifluoromethoxy-benzenesulfonyl)-piperazine-2-carboxylic acid 4-propyl-benzylamide]
IC50 [1, 3]: < 100 nM | IC50 [2, 4]: < 100 nM

O=C(NCC12CC3CC(CC(C3)C1)C2)[C@H]1CN(c2cnc3cncnc3n2)CCN1S(=O)(=O)c1ccc(OC(F)(F)F)cc1 [Example 804, (R)-4-pteridin-7-yl-1-(4-trifluoromethoxy-benzenesulfonyl)-piperazine-2-carboxylic acid (adamantan-1-ylmethyl)-amide]
IC50 [1, 5]: > 1000 nM | IC50 [2, 6]: > 1000 nM

CCOC(=O)c1ccc2ncc(N3CCN(S(=O)(=O)c4ccc(OC(F)(F)F)cc4)[C@@H](C(=O)NCc4ccc(C(F)(F)CC)cc4)C3)nc2c1 [Example 710, 3-[(R)-3-[4-(1,1-difluoro-propyl)-benzylcarbamoyl]-4-(4-trifluoromethoxy-benzenesulfonyl)-piperazin-1-yl]-quinoxaline-6-carboxylic acid ethyl ester]
IC50 [1, 5]: 100 to 1000 nM | IC50 [2, 6]: 100 to 1000 nM

CC(C)c1ccc(CNC(=O)[C@H]2CN(c3ncc(C(=O)O)c(O)n3)CCN2S(=O)(=O)c2ccc(C(F)(F)F)cc2)cc1 [Example 357, 4-hydroxy-2-[(R)-3-(4-isopropyl-benzylcarbamoyl)-4-(4-trifluoromethyl-benzenesulfonyl)-piperazin-1-yl]-pyrimidine-5-carboxylic acid]
IC50 [1, 3]: 100 to 1000 nM | IC50 [2, 4]: > 1000 nM

CCC(F)(F)c1ccc(CNC(=O)[C@H]2CN(C(=O)Cn3nnnc3C(C)C)CCN2S(=O)(=O)c2ccc(OC(F)(F)F)cc2)cc1 [Example 541, (R)-4-[2-(5-isopropyl-tetrazol-1-yl)-acetyl]-1-(4-trifluoromethoxy-benzenesulfonyl)-piperazine-2-carboxylic acid 4-(1,1-difluoro-propyl)-benzylamide]
IC50 [1, 3]: 100 to 1000 nM | IC50 [2, 4]: 100 to 1000 nM

CC(C)c1ccc(CNC(=O)[C@H]2CN(c3cc(C(=O)O)nn3C)CCN2S(=O)(=O)c2ccc(C(F)(F)F)cc2)cc1 [Example 439, 5-[(R)-3-(4-isopropyl-benzylcarbamoyl)-4-(4-trifluoromethyl-benzenesulfonyl)-piperazin-1-yl]-1-methyl-1H-pyrazole-3-carboxylic acid]
IC50 [1, 3]: 100 to 1000 nM | IC50 [2, 4]: > 1000 nM

CCCc1ccc(S(=O)(=O)N2CCN(C(C)=O)CC2C(=O)NCc2ccc(C(F)(F)F)cc2)cc1 (stereo not shown) [Example 72, 4-acetyl-1-(4-propyl-benzenesulfonyl)-piperazine-2-carboxylic acid 4-trifluoromethyl-benzylamide]
IC50 [1, 3]: 100 to 1000 nM | IC50 [2, 4]: > 1000 nM

CCc1ccc(CNC(=O)C2CN(C(C)=O)CCN2S(=O)(=O)c2ccc(C(C)C)cc2)cc1 (stereo not shown) [Example 144, 4-acetyl-1-(4-isopropyl-benzenesulfonyl)-piperazine-2-carboxylic acid 4-ethyl-benzylamide]
IC50 [1, 3]: 100 to 1000 nM | IC50 [2, 4]: 100 to 1000 nM

CCC(F)(F)c1ccc(CNC(=O)[C@H]2CN(C(=O)n3nc(C)nc3N)CCN2S(=O)(=O)c2ccc(OC(F)(F)F)cc2)cc1 [Example 568, (R)-4-(5-amino-3-methyl-[1,2,4]triazole-1-carbonyl)-1-(4-trifluoromethoxy-benzenesulfonyl)-piperazine-2-carboxylic acid 4-(1,1-difluoro-propyl)-benzylamide]
IC50 [1, 3]: > 1000 nM | IC50 [2, 4]: > 1000 nM

CCC(F)(F)c1ccc(CNC(=O)[C@H]2CN(C(=O)Cn3nnc(CC(=O)N4CCOCC4)n3)CCN2S(=O)(=O)c2ccc(OC(F)(F)F)cc2)cc1 [Example 543, (R)-4-{2-[5-(2-morpholin-4-yl-2-oxo-ethyl)-tetrazol-2-yl]-acetyl}-1-(4-trifluoromethoxy-benzenesulfonyl)-piperazine-2-carboxylic acid 4-(1,1-difluoro-propyl)-benzylamide]
IC50 [1, 3]: < 100 nM | IC50 [2, 4]: < 100 nM

CCC(F)(F)c1ccc(CNC(=O)[C@H]2CN(c3ccn4ncnc4n3)CCN2S(=O)(=O)c2ccc(OC(F)(F)F)cc2)cc1 [Example 626, (R)-4-[1,2,4]triazolo[1,5-a]pyrimidin-5-yl-1-(4-trifluoromethoxy-benzenesulfonyl)-piperazine-2-carboxylic acid 4-(1,1-difluoro-propyl)-benzylamide]
IC50 [1, 3]: < 100 nM | IC50 [2, 4]: < 100 nM

CCOC(=O)c1ccc2nc(N3CCN(S(=O)(=O)c4ccc(OC(F)(F)F)cc4)[C@@H](C(=O)NCc4ccc(C(F)(F)CC)cc4)C3)cnc2c1 [Example 693, 2-[(R)-3-[4-(1,1-difluoro-propyl)-benzylcarbamoyl]-4-(4-trifluoromethoxy-benzenesulfonyl)-piperazin-1-yl]-quinoxaline-6-carboxylic acid ethyl ester]
IC50 [1, 5]: 100 to 1000 nM | IC50 [2, 6]: > 1000 nM

CC(C)c1ccc(CNC(=O)[C@H]2CN(c3nc(CC(=O)O)cs3)CCN2S(=O)(=O)c2ccc(C(F)(F)F)cc2)cc1 [Example 259, {2-[(R)-3-(4-isopropyl-benzylcarbamoyl)-4-(4-trifluoromethyl-benzenesulfonyl)-piperazin-1-yl]-thiazol-4-yl}-acetic acid]
IC50 [1, 3]: < 100 nM | IC50 [2, 4]: 100 to 1000 nM

CCC(F)(F)c1ccc(CNC(=O)[C@H]2CN(c3cnc4ccc(C(=O)O)cc4n3)CCN2S(=O)(=O)c2ccc(OC(F)(F)F)cc2)cc1 [Example 711, 3-[(R)-3-[4-(1,1-difluoro-propyl)-benzylcarbamoyl]-4-(4-trifluoromethoxy-benzenesulfonyl)-piperazin-1-yl]-quinoxaline-6-carboxylic acid]
IC50 [1, 5]: < 100 nM | IC50 [2, 6]: 100 to 1000 nM

CC(=O)N1CCN(S(=O)(=O)c2ccc(C(C)(C)C)cc2)C(C(=O)NCc2ccc(C(F)(F)F)cc2)C1 (stereo not shown) [Example 30, 4-acetyl-1-(4-tert-butyl-benzenesulfonyl)-piperazine-2-carboxylic acid 4-trifluoromethyl-benzylamide]
IC50 [1, 3]: > 1000 nM | IC50 [2, 4]: > 1000 nM
